Measured values published in patent publication US12570655B2, “Cysteine covalent modifiers of AKT1 and uses thereof” (Terremoto Biosciences, Inc., priority 2023, dated 2026).

How the values were obtained:
Type in all cases: cell-based
[1] = biological target: T1, AKT1 WT (Homo sapiens, UniProt P31749); experiment: Live cell AKT1 WT target engagement by NanoBRET competitive probe displacement; settings: HEK293 cells transfected with kinase-NanoLuciferase fusion, 2 h at 37° C.
T1 construct: expressed in transfected cells; host or cells: HEK293
T1 sequence (P31749 whole entry, the tested form may be a part): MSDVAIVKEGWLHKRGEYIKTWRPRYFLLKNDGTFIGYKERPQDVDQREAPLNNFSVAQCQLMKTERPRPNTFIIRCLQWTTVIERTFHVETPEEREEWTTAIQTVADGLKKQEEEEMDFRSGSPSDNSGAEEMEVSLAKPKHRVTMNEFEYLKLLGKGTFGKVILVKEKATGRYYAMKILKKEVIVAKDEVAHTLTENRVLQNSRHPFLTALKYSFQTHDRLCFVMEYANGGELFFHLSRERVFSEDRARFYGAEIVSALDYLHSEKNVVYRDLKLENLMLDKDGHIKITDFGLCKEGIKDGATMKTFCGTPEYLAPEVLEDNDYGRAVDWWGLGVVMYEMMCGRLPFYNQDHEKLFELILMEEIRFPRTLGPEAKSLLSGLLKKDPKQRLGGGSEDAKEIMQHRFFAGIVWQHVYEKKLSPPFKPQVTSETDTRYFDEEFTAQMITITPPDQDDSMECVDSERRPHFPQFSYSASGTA
Summary of the method: (§1)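 HEK293 cells transiently expressing kinase–NanoLuciferase fusions (overnight transfection) were treated with serial compound dilutions plus fluorescent ATP-competitive tracer at ~EC50 concentration for 2 h at 37 °C. BRET ratio E600/E460 measured after substrate and extracellular luciferase inhibitor addition; IC50 from log(inhibitor)–response Hill fit.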

[2] = biological target: T2, AKT1 E17K (Homo sapiens, UniProt P31749, E17K); experiment: Live cell AKT1 E17K target engagement by NanoBRET competitive probe displacement; settings: HEK293 cells transfected with kinase-NanoLuciferase fusion, 2 h at 37° C.
T2 construct: expressed in transfected cells; host or cells: HEK293
T2 sequence (P31749 whole entry E17K, the tested form may be a part): as the sequence (P31749 whole entry, the tested form may be a part) above, with E17K counted along it
Summary of the method: as §1

[3] = tested on: LAPC4 prostate cancer cells; experiment: Antiproliferative effects in LAPC4 cells (CellTiter Glo); settings: Homo sapiens, LAPC4, 72 h, LAPC4 cells (AKT1 E17K allele), read-out: LAPC4 proliferation IC50
Summary of the method: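 LAPC4 cells were cultured in IMDM with 12% FBS and 1% P/S, seeded at 1,000 cells/well and exposed to compound dilutions in DMSO. After 72 h, intracellular ATP was measured by CellTiter Glo luminescence, and IC50 values came from a log(inhibitor) vs. response Hill fit.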

[4] = biological target: T3, AKT2 (Homo sapiens, UniProt P31751); experiment: Live cell AKT2 target engagement by NanoBRET competitive probe displacement; settings: HEK293 cells transfected with kinase-NanoLuciferase fusion, 2 h at 37° C.
T3 construct: expressed in transfected cells; host or cells: HEK293
T3 sequence (P31751 whole entry, the tested form may be a part): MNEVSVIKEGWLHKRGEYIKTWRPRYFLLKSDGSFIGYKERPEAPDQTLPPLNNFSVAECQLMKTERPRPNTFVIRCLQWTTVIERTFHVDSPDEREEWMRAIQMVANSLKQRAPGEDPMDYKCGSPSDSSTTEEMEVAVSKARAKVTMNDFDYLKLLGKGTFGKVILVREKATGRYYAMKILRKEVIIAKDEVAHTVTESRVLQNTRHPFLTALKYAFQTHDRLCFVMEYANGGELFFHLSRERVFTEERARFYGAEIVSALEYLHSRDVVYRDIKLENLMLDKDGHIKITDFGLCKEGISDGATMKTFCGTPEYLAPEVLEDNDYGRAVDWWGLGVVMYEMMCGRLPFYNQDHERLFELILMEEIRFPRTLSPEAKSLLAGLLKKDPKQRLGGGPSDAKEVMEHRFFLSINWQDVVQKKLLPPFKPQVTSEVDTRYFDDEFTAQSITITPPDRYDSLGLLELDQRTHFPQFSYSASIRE
Summary of the method: as §1

Structure (SMILES)	IC50 [1] [nM]	IC50 [2] [nM]	IC50 [3] [nM]	IC50 [4] [nM]
Nc1ncccc1-c1nc2ccc(-n3cccn3)nc2n1-c1ccc2c(c1)CC[C@@H]2NC1CCN(C(=O)[C@@H]2CO2)CC1 [Example 123, 3-{3-[(1S)-1-({1-[(2S)-oxirane-2-carbonyl]piperidin-4-yl}amino)-2,3-dihydro-1H-inden-5-yl]-5-(pyrazol-1-yl)imidazo[4,5-b]pyridin-2-yl}pyridin-2-amine]	30.9	42.4	736	393
CN(CC#N)C(=O)N1CCC(N[C@H]2CCc3cc(-n4c(-c5cccnc5N)nc5ccc(-n6cccn6)nc54)ccc32)CC1 [Example 128, 4-{[(1S)-5-[2-(2-aminopyridin-3-yl)-5-(pyrazol-1-yl)imidazo[4,5-b]pyridin-3-yl]-2,3-dihydro-1H-inden-1-yl]amino-N}-(cyanomethyl)-N-methylpiperidine-1-carboxamide]	10.6	8.62	44.8	43
C=CC(=O)N1CCC(N[C@@H]2CCc3cc(-n4c(-c5cccnc5N)nc5ccc(-n6cccn6)nc54)ccc32)CC1 [Example 149, 1-(4-{[(1R)-5-[2-(2-aminopyridin-3-yl)-5-(pyrazol-1-yl)imidazo[4,5-b]pyridin-3-yl]-2,3-dihydro-1H-inden-1-yl]amino}piperidin-1-yl)prop-2-en-1-one]	23.5	60.8	109	189
C=CC(=O)N1CCC(N[C@H]2CCc3cc(-n4c(-c5ccccc5)nc5ccc(-n6cccn6)nc54)ccc32)CC1 [Example 152, (S)-1-(4-((5-(2-phenyl-5-(1H-pyrazol-1-yl)-3H-imidazo[4,5-b]pyridin-3-yl)-2,3-dihydro-1H-inden-1-yl)amino)piperidin-1-yl)prop-2-en-1-one]	> 1000	> 1000	> 10000	> 10000
C=CC(=O)N1CCC(N[C@H]2CCc3cc(-n4c(-c5cccnc5)nc5ccc(-n6cccn6)nc54)ccc32)CC1 [Example 153, (S)-1-(4-((5-(5-(1H-pyrazol-1-yl)-2-(pyridin-3-yl)-3H-imidazo[4,5-b]pyridin-3-yl)-2,3-dihydro-1H-inden-1-yl)amino)piperidin-1-yl)prop-2-en-1-one]	26.9	168	362	1080
C=CC(=O)N1CCC(N[C@H]2CCCc3cc(-n4c(-c5cccnc5N)nc5ccc(-n6cccn6)nc54)ccc32)CC1 [Example 154, (S)-1-(4-((6-(2-(2-aminopyridin-3-yl)-5-(1H-pyrazol-1-yl)-3H-imidazo[4,5-b]pyridin-3-yl)-1,2,3,4-tetrahydronaphthalen-1-yl)amino)piperidin-1-yl)prop-2-en-1-one]	301	> 1000	> 10000	> 10000
C=CC(=O)N1CCC(N[C@H]2CCc3cc(-n4c(-c5cccnc5N)nc5ccc(-n6cccn6)nc54)ccc32)C(C#N)C1 (stereo partly drawn) [Example 157, (3*,4*)-1-acryloyl-4-(((S)-5-(2-(2-aminopyridin-3-yl)-5-(1H-pyrazol-1-yl)-3H-imidazo[4,5-b]pyridin-3-yl)-2,3-dihydro-1H-inden-1-yl)amino)piperidine-3-carbonitrile]	17.2	54.5	110	216
C=CC(=O)N1CC(N2CCC(N[C@H]3CCc4cc(-n5c(-c6cccnc6N)nc6ccc(-n7cccn7)nc65)ccc43)CC2)C1 [Example 158, (S)-1-(3-(4-((5-(2-(2-aminopyridin-3-yl)-5-(1H-pyrazol-1-yl)-3H-imidazo[4,5-b]pyridin-3-yl)-2,3-dihydro-1H-inden-1-yl)amino)piperidin-1-yl)azetidin-1-yl)prop-2-en-1-one]	72.6	358	1090	1870
C=CC(=O)N1CCC(N[C@H]2CCc3cc(-n4c(-c5cccnc5N)nc5ccc(-c6nccs6)nc54)ccc32)CC1 [Example 159, 1-(4-{[(1S)-5-[2-(2-aminopyridin-3-yl)-5-(1,3-thiazol-2-yl)imidazo[4,5-b]pyridin-3-yl]-2,3-dihydro-1H-inden-1-yl]amino}piperidin-1-yl)prop-2-en-1-one]	20	56.2	71.2	146
C=CC(=O)N1CCC(N[C@H]2CCc3cc(-n4c(-c5cccnc5N)nc5ccc(-c6cnn(C)n6)nc54)ccc32)CC1 [Example 160, 1-(4-{[(1S)-5-[2-(2-aminopyridin-3-yl)-5-(2-methyl-1,2,3-triazol-4-yl)imidazo[4,5-b]pyridin-3-yl]-2,3-dihydro-1H-inden-1-yl]amino}piperidin-1-yl)prop-2-en-1-one]	9.31	26.9	27.4	29.6
C=CC(=O)N1CCC(N(CC2COC2)[C@H]2CCc3cc(-n4c(-c5cccnc5N)nc5ccc(-n6cccn6)nc54)ccc32)CC1 [Example 161, 1-(4-{[(1S)-5-[2-(2-aminopyridin-3-yl)-5-(pyrazol-1-yl)imidazo[4,5-b]pyridin-3-yl]-2,3-dihydro-1H-inden-1-yl](oxetan-3-ylmethyl)amino}piperidin-1-yl)prop-2-en-1-one]	18.3	110	100	198
C=CC(=O)N(C)CCCN[C@H]1CCc2cc(-n3c(-c4cccnc4N)nc4ccc(-n5cccn5)nc43)ccc21 [Example 166, (S)-N-(3-((5-(2-(2-aminopyridin-3-yl)-5-(1H-pyrazol-1-yl)-3H-imidazo[4,5-b]pyridin-3-yl)-2,3-dihydro-1H-inden-1-yl)amino)propyl)-N-methylacrylamide]	21.9	74	116	257
C=CC(=O)N1CCC(c2cn([C@H]3CCc4cc(-n5c(-c6cccnc6N)nc6ccc(-n7cccn7)nc65)ccc43)nn2)CC1 [Example 169, 1-(4-{1-[(1S)-5-[2-(2-aminopyridin-3-yl)-5-(pyrazol-1-yl)imidazo[4,5-b]pyridin-3-yl]-2,3-dihydro-1H-inden-1-yl]-1,2,3-triazol-4-yl}piperidin-1-yl)prop-2-en-1-one]	593	53.7	565	115
Nc1ncccc1-c1nc2ccc(-n3cccn3)nc2n1-c1ccc2c(c1)CC[C@@H]2NC1CCN(C(=O)C(F)Cl)CC1 (stereo partly drawn) [Example 173, 1-(4-{[(1S)-5-[2-(2-aminopyridin-3-yl)-5-(pyrazol-1-yl)imidazo[4,5-b]pyridin-3-yl]-2,3-dihydro-1H-inden-1-yl]amino}piperidin-1-yl)-2-chloro-2-fluoroethanone]	1340	56.5	748	324
C#Cc1cccc(-c2ccc3nc(-c4cccnc4N)n(-c4ccc5c(c4)CC[C@@H]5NC4CCN(C(=O)C=C)CC4)c3n2)c1 [Example 178, 1-(4-{[(1S)-5-[2-(2-aminopyridin-3-yl)-5-(3-ethynylphenyl)imidazo[4,5-b]pyridin-3-yl]-2,3-dihydro-1H-inden-1-yl]amino}piperidin-1-yl)prop-2-en-1-one]	33.2	18.1	71	26.7
C=CC(=O)N1CCC(CN[C@H]2CCc3cc(-n4c(-c5cccnc5N)nc5ccc(-n6cccn6)nc54)ccc32)(OC)CC1 [Example 183, 1-[4-({[(1S)-5-[2-(2-aminopyridin-3-yl)-5-(pyrazol-1-yl)imidazo[4,5-b]pyridin-3-yl]-2,3-dihydro-1H-inden-1-yl]amino}methyl)-4-methoxypiperidin-1-yl]prop-2-en-1-one]	1260	99.4	1600	633
C=CC(=O)N1CCC(F)(CN[C@H]2CCc3cc(-n4c(-c5cccnc5N)nc5ccc(-n6cccn6)nc54)ccc32)CC1 [Example 184, (S)-1-(4-(((5-(2-(2-aminopyridin-3-yl)-5-(1H-pyrazol-1-yl)-3H-imidazo[4,5-b]pyridin-3-yl)-2,3-dihydro-1H-inden-1-yl)amino)methyl)-4-fluoropiperidin-1-yl)prop-2-en-1-one]	104	17.8	184	27.2
CC(C)=CC(=O)N1CCC(N[C@H]2CCc3cc(-n4c(-c5cccnc5N)nc5ccc(-n6cccn6)nc54)ccc32)CC1 [Example 185, 1-(4-{[(1S)-5-[2-(2-aminopyridin-3-yl)-5-(pyrazol-1-yl)imidazo[4,5-b]pyridin-3-yl]-2,3-dihydro-1H-inden-1-yl]amino}piperidin-1-yl)-3-methylbut-2-en-1-one]	2170	53.2	4130	912
C=CC(=O)N1CCC(N[C@H]2CCc3cc(-n4c(-c5cccnc5N)nc5ccc(N6CCC(F)(F)CC6)nc54)ccc32)CC1 [Example 186, 1-(4-{[(1S)-5-[2-(2-aminopyridin-3-yl)-5-(4,4-difluoropiperidin-1-yl)imidazo[4,5-b]pyridin-3-yl]-2,3-dihydro-1H-inden-1-yl]amino}piperidin-1-yl)prop-2-en-1-one]	877	30.6	801	954
